The text below walks through data of patent US9415034B2, “Inhibitors and enhancers of uridine diphosphate-glucuronosyltransferase 2B (UGT2B)” (NATIONAL DEFENSE MEDICAL CENTER, priority 2005, dated 2016).

The subject of the data set is UGT2B. In words: Measurement of the inhibition of UGT2B activity in vitro (metabolism of nalbuphine in liver microsome, HPLC). Conditions: for inhibition at 60 min / inhibition at 60 min, 8.5 µM / inhibition at 60 min, 85 µM / inhibition at 60 min, 850 µM / inhibition at 60 min, 8.5 μM / inhibition at 60 min, 85 μM / inhibition at 60 min, 850 μM: male, Sprague-Dawley, rat. As for the experimental part:
In the following experiment, 27 different kinds of CHEs and 10 different excipients were used as UGT2B inhibitor in this invention. These CHEs are pure compounds available commercially, and were purchased from Sigma Chemical Co., Nacalai Tesque (Kyoto, Japan) and Indofine Chemical Co., Inc. (Somerville, N.J.). These UGT2B inhibitors are dissolved in alcohol at the concentration of 1, 10, 100 μM for the following experiment.
These excipients are dissolved in water and make up to 0.5%, 5%, 50% (wt %, w/v) for the following experiment. (Note: BRIJ is a registered trademark of ICI Americas, Inc.; Pluronic is a registered trademark of BASF Corporation.)
The Sprague-Dawley male rats, weighted 300-400 g are used as model animals in these experiments. The microsome is prepared as follows: • i. Sacrifice a rat after 12-16 hours fasting, take its liver; wipe dry the liver and weigh it. • ii. Add 300% (by volume) of cold 0.3M sucrose solution, and homogenize the liver. • iii. Centrifuge the homogenized liver suspension at 9000×g speed (KS-800, Kubota, made in Japan) for 10 min at 4° C. Collect the supernatant. • iv. Centrifuge the supernatant at 105,000×g speed (L8-60M, Beckman, made in USA) for 60 min at 4° C. • v. Remove the supernatant, add 0.3M sucrose (of the same volume) and repeat the homogenization. The homogenized liver suspension is the microsome. Store the microsome at −70° C.
Thaw the microsome before use. Add 5 μl/ml BRIJ®35 (Fisher et al. 2000, Drug Metabolism & Disposition. 28(5):560-6) into microsome by a ratio of microsome:BRIJ®35=8:1 (v/v).
The protein amount is determined as follows: • i. Take 0.1 ml microsome and dilute to 5 ml 0.85% NaCl (50-fold dilution, v/v). Take 0.2 ml of the diluted microsome and place it in a capped test tube (triple experiments). Separately, replacing microsome with 0.2 ml NaCl as the control. • ii. Add 2.2 ml Biuret regent (SIGMA, 690-A) into each test tube, mix well and store at room temperature for 10 min. • iii. Add 0.1 ml folin regent (SIGMA, 690-A), mix immediately, and store at room temperature for 30 min. Measure the absorbance at 550 nm wave length within the 30 min. Measure the concentration of protein in microsome based on the standard curve generated by various bovine albumin concentration and absorbance. 4. The Measurement of the Inhibition of UGT2B Activity in vitro • i. […] Mix solution (A) and 17 μl solution (B) thoroughly, place in a 37° C. water bath and shake at 125 rpm for 60 min. • iii. Add 1 ml ACN to interrupt the reaction. • iv. Centrifuge at 130,000×g speed at 4° C. for 5 min, and • v. […] 5.
Set the Ultra-violet detector's (SPD-10A, Shimadzu, Kyoto, made in Japan) wave length to 210 nm.
Those CHEs are commercially available pure compounds, acquired from Sigma Chemical Co., Nacalai Tesque (Kyoto, Japan) and […] (Somerville, N.J.). Their categories, names, sources, and chemical compositions are described in Table 5.

The mark [1] stands for this setting: Table 6, enhancer 8.5 μM, negative = enhancement.
The mark [2] stands for this setting: Table 6, enhancer 85 μM, negative = enhancement.
[3] abbreviates: Table 6, enhancer 850 μM, negative = enhancement.
Setting [4] is: Table 2, inhibitor 8.5 μM, metabolism of nalbuphine in rat liver microsome.
[5] abbreviates: Table 2, inhibitor 85 μM, metabolism of nalbuphine in rat liver microsome.
Setting [6] is: Table 2, inhibitor 850 μM, metabolism of nalbuphine in rat liver microsome.

As to `O=c1cc(-c2ccc(O)c(O)c2)oc2cc(O)c([C@@H]3O[C@H](CO)[C@@H](O)[C@H](O)[C@H]3O)c(O)c12` [homoorientin, Homoorientin], the “% Inhibition (Mean ± SD)” value under setting [1] was −128.53 ± 27.613%, the “% Inhibition (Mean ± SD)” value under setting [2] is given as −127.21 ± 28.005% and the “% Inhibition (Mean ± SD)” value under setting [3] is recorded as −133.17 ± 26.968%.
Regarding `O=c1c(O[C@@H]2O[C@H](CO)[C@@H](O)[C@H](O)[C@H]2O)c(-c2ccc(O)c(O)c2)oc2cc(O)cc(O)c12` [isoquercitrin, Isoquercitrin], the “% Inhibition (Mean ± SD)” value reads like this: under setting [1], −8.089 ± 2.404%; under setting [2], −19.119 ± 21.887%; under setting [3], −71.696 ± 20.468%.
On to `COc1cc(-c2oc3cc(O)cc(O)c3c(=O)c2O)ccc1O` [isorhamnetin, Isorhamnetin], for which the inhibition at 60 min was ≥ 30%; the inhibition at 60 min, 8.5 µM was 88.4 ± 11.6%; the inhibition at 60 min, 85 µM turned out to be 85.1 ± 14.7%; the inhibition at 60 min, 850 µM was 107 ± 8.1%.
Take `O=c1cc(-c2ccc(O)cc2)oc2cc(O)c([C@@H]3O[C@H](CO)[C@@H](O)[C@H](O)[C@H]3O)c(O)c12` [isovitexin, Isovitexin]: the “% Inhibition (Mean ± SD)” value runs as follows: under setting [4], 29.821 ± 9.786%; under setting [5], −5.528 ± 9.096%; under setting [6], −12.377 ± 8.912%; under setting [1], 29.821 ± 9.786%; under setting [2], −5.528 ± 9.096%; under setting [3], −12.377 ± 8.912%.
As for `O=c1c(O)c(-c2ccc(O)cc2)oc2cc(O)cc(O)c12` [kaempferol, Kaempferol], where the note is “% Inhibition (Mean ± SD)”, the inhibition at 60 min, 8.5 μM is -19.5 ± 14.2%; the inhibition at 60 min, 85 μM was -76 ± 27.3%; the inhibition at 60 min, 850 μM is -71.1 ± 4.51%.
With `CCCCCCCCCCCCO` [lauryl alcohol, Lauryl Alcohol], under “% Inhibition (Mean ± SD)”, the inhibition at 60 min, 8.5 µM amounted to 14.4 ± 3.37%; the inhibition at 60 min, 85 µM came to 19.5 ± 3.46%; the inhibition at 60 min, 850 µM worked out at 6.23 ± 6.75%.
Consider `O=C1C[C@@H](c2ccc(O[C@@H]3O[C@H](CO)[C@@H](O)[C@H](O)[C@H]3O)cc2)Oc2cc(O)ccc21` [liquiritin, Liquiritin], for which, where the note is “% Inhibition (Mean ± SD)”, the inhibition at 60 min, 8.5 μM is -9.38 ± 1.8%; the inhibition at 60 min, 85 μM was -17.7 ± 8.51%; the inhibition at 60 min, 850 μM was -29.2 ± 2.74%.
In the case of `O=c1cc(-c2ccc(O)c(O)c2)oc2cc(O)cc(O)c12` [luteolin, Luteolin], for the setting “% Inhibition (Mean ± SD)”, the inhibition at 60 min, 8.5 μM is -25.5 ± 26.6%; the inhibition at 60 min, 85 μM was -28.3 ± 15.2%; the inhibition at 60 min, 850 μM is -17.6 ± 12.1%.
For the molecule `O=c1cc(-c2ccc(O)c(O)c2)oc2cc(O[C@@H]3O[C@H](CO)[C@@H](O)[C@H](O)[C@H]3O)cc(O)c12` [luteolin-7-glucoside, Luteolin-7-Glucoside], the “% Inhibition (Mean ± SD)” value under setting [1] is −45.053 ± 3.583%, the “% Inhibition (Mean ± SD)” value under setting [2] is reported as −36.109 ± 9.203% and the “% Inhibition (Mean ± SD)” value under setting [3] was −47.869 ± 26.599%.
Regarding `C[C@@H]1O[C@@H](O[C@H]2[C@H](Oc3cc(O)c4c(c3)O[C@H](c3ccc(O)cc3)CC4=O)O[C@H](CO)[C@@H](O)[C@@H]2O)[C@H](O)[C@H](O)[C@H]1O` [narigin, Narigin], the “% Inhibition (Mean ± SD)” value is recorded as −124.10 ± 16.541% under setting [1], −80.70 ± 4.927% under setting [2] and −98.15 ± 5.276% under setting [3].
`COc1ccc([C@@H]2CC(=O)c3c(O)cc(O[C@@H]4O[C@H](CO)[C@@H](O)[C@H](O)[C@H]4O[C@@H]4O[C@@H](C)[C@H](O)[C@@H](O)[C@H]4O)cc3O2)cc1O` [neohesperidin, Neohesperidin]: the “% Inhibition (Mean ± SD)” value by setting is: under setting [1], −66.586 ± 9.614%; under setting [2], −113.63 ± 8.986%; under setting [3], −113.46 ± 16.721%.
`C[C@H](Cc1ccc(O)c(O)c1)[C@@H](C)Cc1ccc(O)c(O)c1` [nordihydroguaiaretic acid]: for the setting “% Inhibition (Mean ± SD)”, the inhibition at 60 min, 8.5 μM was -142 ± 41%; the inhibition at 60 min, 85 μM is -165 ± 23%; the inhibition at 60 min, 850 μM was -188 ± 16.6%. In addition, the inhibition at 60 min (rate of inhibition (enhancement of the metabolism of nalbuphine in liver microsome)) was -188%.
For the molecule `CC1(C)CC[C@]2(C(=O)O)CC[C@]3(C)C(=CC[C@@H]4[C@@]5(C)CC[C@H](O)C(C)(C)[C@@H]5CC[C@]43C)[C@@H]2C1` [oleanolic acid, Oleanolic Acid], the inhibition at 60 min, 8.5 μM (liver microsomes, probe nalbuphine, % Inhibition (Mean ± SD), Table 6, enhancer 8.5 μM, negative = enhancement) is -87.2 ± 24.4%. Moreover, under “liver microsomes, probe nalbuphine, % Inhibition (Mean ± SD), Table 6, enhancer 85 μM, negative = enhancement”, the inhibition at 60 min, 85 μM was -136 ± 15.2%. Moreover, the inhibition at 60 min, 850 μM (liver microsomes, probe nalbuphine, % Inhibition (Mean ± SD), Table 6, enhancer 850 μM, negative = enhancement) was -129 ± 22.1%.
As to `COc1ccc([C@@H]2CC(=O)c3c(O)cc(O[C@@H]4O[C@H](CO)[C@@H](O)[C@H](O)[C@H]4O[C@@H]4O[C@@H](C)[C@H](O)[C@@H](O)[C@H]4O)cc3O2)cc1` [poncirin, Poncirin], the “% Inhibition (Mean ± SD)” value is, setting by setting: under setting [1], −16.068 ± 8.122%; under setting [2], −8.448 ± 8.261%; under setting [3], −7.098 ± 18.196%.
As for `O=C(O)c1ccc(O)c(O)c1` [protocatechuic acid, Protocatechuic acid], where the note is “% Inhibition (Mean ± SD)”, the inhibition at 60 min, 8.5 µM was -20.2 ± 5.96%; the inhibition at 60 min, 8.5 μM was -20.2 ± 5.96%; the inhibition at 60 min, 85 µM is -4.56 ± 3.37%; the inhibition at 60 min, 85 μM is -4.56 ± 3.37%. Besides, where the note is “% Inhibition (Mean ± SD)”, the inhibition at 60 min, 850 µM was 9.84 ± 1.87% and the inhibition at 60 min, 850 μM was 9.84 ± 1.87%.
Take `O=c1c(-c2ccc(O)cc2)coc2c([C@@H]3O[C@H](CO)[C@@H](O)[C@H](O)[C@H]3O)c(O)ccc12` [puerarin, Puerarin]: under “% Inhibition (Mean ± SD)”, the inhibition at 60 min, 8.5 µM is 3.92 ± 5.61%; the inhibition at 60 min, 85 µM came out at 18.3 ± 7.68%; the inhibition at 60 min, 850 µM came out at 10.1 ± 5.84%.
In the case of `O=c1c(O)c(-c2ccc(O)c(O)c2)oc2cc(O)cc(O)c12` [quercetin, Quercetin], under “% Inhibition (Mean ± SD)”, the inhibition at 60 min, 8.5 μM was -81.4 ± 5.59%; the inhibition at 60 min, 85 μM is -143 ± 18.5%; the inhibition at 60 min, 850 μM is -119 ± 19.4%.
For `C[C@@H]1O[C@@H](Oc2c(-c3ccc(O)c(O)c3)oc3cc(O)cc(O)c3c2=O)[C@H](O)[C@H](O)[C@H]1O` [quercitrin, Quercitrin], the “% Inhibition (Mean ± SD)” value is, setting by setting: under setting [1], −81.27 ± 15.027%; under setting [2], −83.60 ± 27.446%; under setting [3], −55.57 ± 12.151%.
With `C[C@@H]1O[C@@H](OC[C@H]2O[C@@H](Oc3c(-c4ccc(O)c(O)c4)oc4cc(O)cc(O)c4c3=O)[C@H](O)[C@@H](O)[C@@H]2O)[C@H](O)[C@H](O)[C@H]1O` [rutin, Rutin], the “% Inhibition (Mean ± SD)” value was −19.854 ± 19.742% under setting [1], −29.414 ± 29.485% under setting [2] and −33.458 ± 13.373% under setting [3].
For `C=C[C@H]1[C@H](O[C@@H]2O[C@H](CO)[C@@H](O)[C@H](O)[C@H]2O)OC=C2C(=O)OCC[C@]21O` [swertiamarin, Swertiamarin], the “% Inhibition (Mean ± SD)” value by setting is: under setting [4], 28.239 ± 2.248%; under setting [5], 27.930 ± 4.129%; under setting [6], −2.499 ± 6.899%.
`O=C/C=C/c1ccccc1` [trans-cinnamaldehyde, Trans- Cinnamaldehyde]: under “% Inhibition (Mean ± SD)”, the inhibition at 60 min, 8.5 µM was -6.97 ± 3.78%; the inhibition at 60 min, 8.5 μM is -6.97 ± 3.78%; the inhibition at 60 min, 85 µM was -3.1 ± 9.46%; the inhibition at 60 min, 85 μM is -3.1 ± 9.46%. Also, for the setting “% Inhibition (Mean ± SD)”, the inhibition at 60 min, 850 µM was 18.3 ± 10.3% and the inhibition at 60 min, 850 μM turned out to be 18.3 ± 10.3%.
`O=C(O)/C=C/c1ccccc1` [trans-cinnamic acid, Trans-Cinnamic Acid]: for the setting “% Inhibition (Mean ± SD)”, the inhibition at 60 min, 8.5 μM is -153 ± 24.9%; the inhibition at 60 min, 85 μM is -109 ± 18.6%; the inhibition at 60 min, 850 μM was -135 ± 3.9%.
